Drawing on patent US12391679B2, “Benzamide-substituted bicyclic imidazo- and pyrazolo-fused -pyridine, -pyrimide, and -pyridazine compounds for treatment of inflammatory diseases” (ONCO3R Therapeutics BV, priority 2019, dated 2025), this text covers IC50 and maximal fold induction for 15 molecules.

Molecules are shown by their SMILES.

One assay has as its target T1, SIK1 (Homo sapiens, UniProt P57059).
T1 construct: purchased Carna Biosciences 02-131
In words: ADP-Glo kinase assay, SIK1. The format is biochemical. The gist of the method:
(§1)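 Luminescent ADP-formation read-out: enzyme–substrate mix + ATP, 120 min RT; ATP depletion 40 min RT; ADP→ATP conversion with luciferase/luciferin 30 min RT. Controls: 1% DMSO (negative), 10 μM staurosporine final (positive).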

Another assay has as its target T2, SIK2 (Homo sapiens, UniProt Q9H0K1).
T2 construct: purchased ThermoFisher Scientific PV4792
Briefly: ADP-Glo kinase assay, SIK2. The format is biochemical. A digest of the protocol: as §1

Another assay addresses T3, SIK3 (Homo sapiens, UniProt Q9Y2K2).
T3 construct: purchased SignalChem S12-11G-100
In words: ADP-Glo kinase assay, SIK3. The format is biochemical. The gist of the method: as §1

Assay [1] concerns LPS triggered IL-10 secretion in monocytes. Briefly: Monocytes assay: LPS-triggered IL-10 (ELISA). The format is cell-based, human. The settings on record: Homo sapiens, Monocyte, LPS-triggered IL-10 induction, median maximal fold change vs LPS only, read-out: IL-10 FCmax median. A digest of the protocol: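 CD14+ monocytes bead-isolated from human PBMCs, pretreated with compound 1 h at 37 °C (0.2% DMSO), then stimulated with LPS 200 ng/mL for 4 h. Supernatant IL-10 measured by chemiluminescent sandwich ELISA; fold change versus LPS only per concentration, reported as maximal fold change (FCmax).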

T1 sequence (P57059 whole entry): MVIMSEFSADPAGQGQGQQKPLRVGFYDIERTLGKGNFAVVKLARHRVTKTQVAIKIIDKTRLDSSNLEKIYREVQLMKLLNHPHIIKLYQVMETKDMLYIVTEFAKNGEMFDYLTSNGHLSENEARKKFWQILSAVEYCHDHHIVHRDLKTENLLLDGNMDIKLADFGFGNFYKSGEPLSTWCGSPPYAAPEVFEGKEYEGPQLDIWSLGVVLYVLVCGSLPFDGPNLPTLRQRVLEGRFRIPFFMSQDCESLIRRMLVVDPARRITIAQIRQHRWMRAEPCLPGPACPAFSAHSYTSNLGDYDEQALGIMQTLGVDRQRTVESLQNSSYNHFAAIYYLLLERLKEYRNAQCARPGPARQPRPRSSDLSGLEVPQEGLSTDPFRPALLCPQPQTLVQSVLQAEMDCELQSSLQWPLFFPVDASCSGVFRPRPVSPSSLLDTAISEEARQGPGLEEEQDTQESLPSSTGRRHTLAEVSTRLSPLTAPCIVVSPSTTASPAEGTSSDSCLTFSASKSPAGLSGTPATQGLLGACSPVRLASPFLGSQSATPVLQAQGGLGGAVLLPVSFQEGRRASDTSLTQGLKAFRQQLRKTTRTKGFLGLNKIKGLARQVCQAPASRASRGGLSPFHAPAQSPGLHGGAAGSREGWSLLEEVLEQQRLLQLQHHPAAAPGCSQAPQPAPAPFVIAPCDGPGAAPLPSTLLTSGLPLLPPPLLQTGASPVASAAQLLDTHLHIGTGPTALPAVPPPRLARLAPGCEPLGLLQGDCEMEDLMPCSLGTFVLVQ
T3 sequence (Q9Y2K2 59-365 limits assumed): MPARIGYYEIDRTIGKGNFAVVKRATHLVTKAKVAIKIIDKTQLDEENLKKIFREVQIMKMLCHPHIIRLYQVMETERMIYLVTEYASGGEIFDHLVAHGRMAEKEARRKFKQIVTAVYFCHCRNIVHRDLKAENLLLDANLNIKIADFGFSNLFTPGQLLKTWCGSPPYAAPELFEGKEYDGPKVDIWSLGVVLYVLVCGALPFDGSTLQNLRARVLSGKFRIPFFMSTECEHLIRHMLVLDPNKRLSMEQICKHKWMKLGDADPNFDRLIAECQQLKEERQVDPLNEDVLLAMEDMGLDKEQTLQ
T2 sequence (Q9H0K1 whole entry): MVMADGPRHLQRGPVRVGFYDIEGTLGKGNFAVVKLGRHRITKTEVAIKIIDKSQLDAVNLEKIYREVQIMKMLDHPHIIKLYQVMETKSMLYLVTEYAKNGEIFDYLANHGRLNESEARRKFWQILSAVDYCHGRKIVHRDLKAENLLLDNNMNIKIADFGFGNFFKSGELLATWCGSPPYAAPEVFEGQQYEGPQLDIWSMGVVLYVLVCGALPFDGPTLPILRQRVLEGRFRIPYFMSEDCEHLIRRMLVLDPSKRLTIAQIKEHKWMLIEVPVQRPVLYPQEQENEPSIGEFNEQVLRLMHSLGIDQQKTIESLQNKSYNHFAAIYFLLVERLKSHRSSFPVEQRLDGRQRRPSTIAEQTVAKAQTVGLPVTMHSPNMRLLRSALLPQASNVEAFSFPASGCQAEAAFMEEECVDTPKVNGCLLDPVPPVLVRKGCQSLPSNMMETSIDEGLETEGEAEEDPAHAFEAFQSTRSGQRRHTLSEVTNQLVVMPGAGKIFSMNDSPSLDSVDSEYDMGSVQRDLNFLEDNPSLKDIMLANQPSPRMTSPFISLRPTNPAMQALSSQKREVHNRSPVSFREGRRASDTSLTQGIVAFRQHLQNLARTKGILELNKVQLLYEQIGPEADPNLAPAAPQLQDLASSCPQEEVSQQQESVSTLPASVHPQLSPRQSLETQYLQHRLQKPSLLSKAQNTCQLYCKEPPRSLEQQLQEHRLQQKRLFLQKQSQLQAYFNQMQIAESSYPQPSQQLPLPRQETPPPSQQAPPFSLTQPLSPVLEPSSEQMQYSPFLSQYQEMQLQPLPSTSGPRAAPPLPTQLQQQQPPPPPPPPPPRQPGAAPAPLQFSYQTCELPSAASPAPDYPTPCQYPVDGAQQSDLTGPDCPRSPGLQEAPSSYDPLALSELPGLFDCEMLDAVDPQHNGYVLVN

Consider `COc1cc(-c2cnn3cc(C(C)(C)CO)ccc23)cc(OC(F)F)c1C(=O)NC1CC1` [Cpd 236, N-cyclopropyl-2-(difluoromethoxy)-4-[6-(2-hydroxy-1,1-dimethyl-ethyl)pyrazolo[1,5-a]pyridin-3-yl]-6-methoxy-benzamide], for which the IC50 against SIK1 is > 500 nM; at SIK2, > 500 nM; against SIK3, 10 to 100 nM. Besides, the maximal fold induction in assay [1] is < 1.5.

In the case of `COc1cc(-c2cnc3cc(C4(C#N)COC4)ccn23)cc(OC(F)F)c1C(=O)N[C@@H]1C[C@@H]1F` [Cpd 130, 4-[7-(3-cyanooxetan-3-yl)imidazo[1,2-a]pyridin-3-yl]-2-(difluoromethoxy)-N-[(1R,2S)-2-fluorocyclopropyl]-6-methoxy-benzamide], the figures for the IC50 at SIK1, at SIK2 and against SIK3 were > 500 nM, > 500 nM and 0.01 to 10 nM, respectively. For the same molecule, the maximal fold induction in assay [1] is 1.5 to 4.5.

Turning to `COc1cc(-c2cnn3cc(C4(N)CCC4)ccc23)cc(OC(F)F)c1C(=O)N[C@@H]1C[C@@H]1F` [Cpd 261, 4-[6-(1-aminocyclobutyl)pyrazolo[1,5-a]pyridin-3-yl]-2-(difluoromethoxy)-N-[(1R,2S)-2-fluorocyclopropyl]-6-methoxy-benzamide], the IC50 is > 500 nM against SIK1, > 500 nM against SIK2 and 0.01 to 10 nM on SIK3. Moreover, the maximal fold induction in assay [1] is < 1.5.

In the case of `COc1cc(-c2cnc3cc(C(C)(C)C#N)cnn23)cc(OC(F)F)c1C(=O)N[C@@H]1C[C@@H]1F` [Cpd 228, 4-[7-(1-cyano-1-methyl-ethyl)imidazo[1,2-b]pyridazin-3-yl]-2-(difluoromethoxy)-N-[(1R,2S)-2-fluorocyclopropyl]-6-methoxy-benzamide], the IC50 against SIK1 is > 500 nM; against SIK2 it was 100 to 500 nM; against SIK3, 0.01 to 10 nM. Further, the maximal fold induction in assay [1] is < 1.5.

In the case of `COc1cc(-c2cnc3cc(C(C)(C)C#N)ccn23)cc(OC(F)F)c1C(=O)N1CC(C#N)C1` [Cpd 77, 1-[4-[7-(1-cyano-1-methyl-ethyl)imidazo[1,2-a]pyridin-3-yl]-2-(difluoromethoxy)-6-methoxy-benzoyl]azetidine-3-carbonitrile], the IC50 at SIK1 is > 500 nM; against SIK2, > 500 nM; against SIK3 it was 0.01 to 10 nM. For the same molecule, in assay [1], the maximal fold induction lay in the range of 1.5 to 4.5.

On to `COc1cc(-c2cnc3cc(C4(F)COC4)ccn23)cc(OC(F)F)c1C(=O)N[C@@H]1C[C@@H]1F` [Cpd 224, 2-(difluoromethoxy)-N-[(1R,2S)-2-fluorocyclopropyl]-4-[7-(3-fluorooxetan-3-yl)imidazo[1,2-a]pyridin-3-yl]-6-methoxy-benzamide], for which the figures for the IC50 against SIK1, against SIK2 and against SIK3 were 100 to 500 nM, 10 to 100 nM and 0.01 to 10 nM, respectively. Moreover, in assay [1], the maximal fold induction was 1.5 to 4.5.

With `COc1cc(-c2cnc3cc(C(C)(C)O)ccn23)cc(OC(F)F)c1C(=O)NC1CC1` [Cpd 35, N-cyclopropyl-2-(difluoromethoxy)-4-[7-(1-hydroxy-1-methyl-ethyl)imidazo[1,2-a]pyridin-3-yl]-6-methoxy-benzamide], the IC50 on SIK1 is > 500 nM; against SIK2, > 500 nM; against SIK3, 10 to 100 nM. For the same molecule, the maximal fold induction in assay [1] was in the range of 1.5 to 4.5.

Turning to `COc1cc(-c2cnn3cc(C4COC4)ccc23)cc(OC(F)F)c1C(=O)NC1CC1` [Cpd 216, N-cyclopropyl-2-(difluoromethoxy)-6-methoxy-4-[6-(oxetan-3-yl)pyrazolo[1,5-a]pyridin-3-yl]benzamide], the concentration for half-maximal inhibition (IC50) lay in the range of 100 to 500 nM against SIK1, 100 to 500 nM against SIK2 and 10 to 100 nM against SIK3. Also, the maximal fold induction in assay [1] is < 1.5.

`COc1cc(-c2cnc3cc(C4(O)CCC4)ccn23)cc(OC(F)F)c1C(=O)NC1CC1` [Cpd 173, N-cyclopropyl-2-(difluoromethoxy)-4-[7-(1-hydroxycyclobutyl)imidazo[1,2-a]pyridin-3-yl]-6-methoxy-benzamide]: the IC50 against SIK1 was > 500 nM; at SIK2, 100 to 500 nM; against SIK3 it was 10 to 100 nM. For the same molecule, in assay [1], the maximal fold induction was in the range of 1.5 to 4.5.

As for `COc1cc(-c2cnn3cc(C(C)(C)O)ccc23)cc(OC(F)F)c1C(=O)N[C@@H]1C[C@@H]1F` [Cpd 227, 2-(difluoromethoxy)-N-[(1R,2S)-2-fluorocyclopropyl]-4-[6-(1-hydroxy-1-methyl-ethyl)pyrazolo[1,5-a]pyridin-3-yl]-6-methoxy-benzamide], the results for the IC50 at SIK1, against SIK2 and at SIK3 were > 500 nM, 100 to 500 nM and 0.01 to 10 nM, respectively. In addition, the maximal fold induction in assay [1] was < 1.5.

As for `COc1cc(-c2cnc3cc(C(C)(C#N)CO)ccn23)cc(OC(F)F)c1C(=O)NC1CC1` (stereo not drawn) [Cpd 176, 4-[7-(1-cyano-2-hydroxy-1-methyl-ethyl)imidazo[1,2-a]pyridin-3-yl]-N-cyclopropyl-2-(difluoromethoxy)-6-methoxy-benzamide], the IC50 on SIK1 was > 500 nM; against SIK2, > 500 nM; at SIK3, 10 to 100 nM. Also, in assay [1], the maximal fold induction lay within 1.5 to 4.5.

With `CCC(C)(C#N)c1ccn2c(-c3cc(OC)c(C(=O)NC4CC4)c(OC(F)F)c3)cnc2c1` (stereo not drawn) [Cpd 27, 4-[7-(1-cyano-1-methyl-propyl)imidazo[1,2-a]pyridin-3-yl]-N-cyclopropyl-2-(difluoromethoxy)-6-methoxy-benzamide], the 50% inhibitory concentration (IC50) on SIK1 was > 500 nM; at SIK2, > 500 nM; against SIK3 it was 10 to 100 nM. Also, in assay [1], the maximal fold induction is < 1.5.

`COc1cc(-c2cnn3cc(C4(C#N)CCOCC4)ccc23)cc(OC(F)F)c1C(=O)NC1CC1` [Cpd 237, 4-[6-(4-cyanotetrahydropyran-4-yl)pyrazolo[1,5-a]pyridin-3-yl]-N-cyclopropyl-2-(difluoromethoxy)-6-methoxy-benzamide]: the concentration for half-maximal inhibition (IC50) against SIK1 is > 500 nM; on SIK2 it was > 500 nM; against SIK3, 0.01 to 10 nM. Further, the maximal fold induction in assay [1] was < 1.5.

For `COc1cc(-c2cnc3cc(C4(C#N)CCOCC4)ccn23)cc(OC(F)F)c1C(=O)NC1CC1` [Cpd 116, 4-[7-(4-cyanotetrahydropyran-4-yl)imidazo[1,2-a]pyridin-3-yl]-N-cyclopropyl-2-(difluoromethoxy)-6-methoxy-benzamide], the IC50 at SIK1 is > 500 nM; against SIK2 it was > 500 nM; against SIK3, 0.01 to 10 nM. The maximal fold induction in assay [1] was 1.5 to 4.5.

As to `COc1cc(-c2cnc3cc(C(C)(C)CO)ccn23)cc(OC(F)F)c1C(=O)NC1CC1` [Cpd 150, N-cyclopropyl-2-(difluoromethoxy)-4-[7-(2-hydroxy-1,1-dimethyl-ethyl)imidazo[1,2-a]pyridin-3-yl]-6-methoxy-benzamide], the half-maximal inhibitory concentration (IC50) on SIK1 is > 500 nM; at SIK2, > 500 nM; at SIK3, 0.01 to 10 nM. The maximal fold induction in assay [1] was < 1.5.
